Test system: Lovo cells
Experiment: MTT tumor cell growth inhibition, Lovo
Type: cell-based
Settings: Homo sapiens, 48 h, read-out: Tumors growth-inhibitory activity (IC50) Lovo
Method: (§1) Using MTT method to determine the growth inhibition activity of the matrine compounds on Lovo, MGC-803, Mia-paca2, HpeG-2, A549, k562, and Panc-1 cells in vitro. Logarithmic growth phase of Lovo, MGC-803, Mia-paca2, HpeG-2, A549, k562, Panc-1 cells were inoculated into 96-well plates (purchased from Institute of Biochemical Cells, Chinese Academy of Sciences, and cultured according to conventional tumor cell culture methods) at a density of 4×10^4/mL and 180 μL/well; after the cells adhered to the wall, 20 μL of drug solution was added to each well and matined the final drug concentrations were 0.1 μM, 1 μM, 10 μM, 50 μM, 100 μM respectively. After 48 h, 5 mg/mL MTT solution was added (20 μL/well) and maintained in a CO2 incubator for 3-4 h. After that, discarding the supernatant carefully, and DMSO was added (200 μL/well) when the residual liquid was air-dried, and shook for 0.5-1 h until the residual crystals was dissolved. The absorbance OD was measured at 492 nm by a microplate reader. GraphPad Prism 5 software was used to calculate the IC50 value.

Row | Compound | IC50 [µM]
1 | Nc1ccc(S(=O)(=O)NC2=CC[C@@H]3[C@H]4CCCN5CCC[C@@H](CN3C2=O)[C@@H]45)cc1 [GJD 47] | 50 to 100
2 | NC1CC[C@@H]2[C@H]3CCCN4CCC[C@@H](CN2C1=O)[C@@H]34 (some centres unmarked) [Compound M-3, 14-amino-matrine] | 50 to 100

Next, values leading:

Row | IC50 [µM] | Compound
3 | 50 to 100 | COc1ccc2c(c1)C(=O)N(C1CC[C@@H]3[C@H]4CCCN5CCC[C@@H](CN3C1=O)[C@@H]45)C2=O (some centres unmarked) [GJD 16]
4 | 50 to 100 | O=C(Nc1cccc2c1CN(C1CC[C@@H]3[C@H]4CCCN5CCC[C@@H](CN3C1=O)[C@@H]45)C2=O)c1ccccc1 (some centres unmarked) [GJD 34]
5 | 50 to 100 | O=C1[C@@H](N2C(=O)c3ccccc3C2=O)CC[C@@H]2[C@H]3CCCN4CCC[C@@H](CN12)[C@@H]34 [GJD 25]

Test system: MGC-803 cells
Experiment: MTT tumor cell growth inhibition, MGC-803
Type: cell-based
Settings: Homo sapiens, 48 h, read-out: Tumors growth-inhibitory activity (IC50) MGC-803
Method: as §1

Row | Compound | IC50 [µM]
6 | Nc1ccc(S(=O)(=O)NC2=CC[C@@H]3[C@H]4CCCN5CCC[C@@H](CN3C2=O)[C@@H]45)cc1 [GJD 47] | > 100
7 | NC1CC[C@@H]2[C@H]3CCCN4CCC[C@@H](CN2C1=O)[C@@H]34 (some centres unmarked) [Compound M-3, 14-amino-matrine] | > 100

More lines, now with the values ahead:

Row | IC50 [µM] | Compound
8 | 50 to 100 | COc1ccc2c(c1)C(=O)N(C1CC[C@@H]3[C@H]4CCCN5CCC[C@@H](CN3C1=O)[C@@H]45)C2=O (some centres unmarked) [GJD 16]
9 | 50 to 100 | O=C(Nc1cccc2c1CN(C1CC[C@@H]3[C@H]4CCCN5CCC[C@@H](CN3C1=O)[C@@H]45)C2=O)c1ccccc1 (some centres unmarked) [GJD 34]
10 | > 100 | O=C1[C@@H](N2C(=O)c3ccccc3C2=O)CC[C@@H]2[C@H]3CCCN4CCC[C@@H](CN12)[C@@H]34 [GJD 25]

Test system: Mia-paca2 cells
Experiment: MTT tumor cell growth inhibition, Mia-paca2
Type: cell-based
Settings: Homo sapiens, MIA PaCa-2, 48 h, read-out: Tumors growth-inhibitory activity (IC50) Mia-paca2
Method: as §1

Row | Compound | IC50 [µM]
11 | Nc1ccc(S(=O)(=O)NC2=CC[C@@H]3[C@H]4CCCN5CCC[C@@H](CN3C2=O)[C@@H]45)cc1 [GJD 47] | > 100
12 | NC1CC[C@@H]2[C@H]3CCCN4CCC[C@@H](CN2C1=O)[C@@H]34 (some centres unmarked) [Compound M-3, 14-amino-matrine] | > 100

Second part, the compound after the results:

Row | IC50 [µM] | Compound
13 | 50 to 100 | COc1ccc2c(c1)C(=O)N(C1CC[C@@H]3[C@H]4CCCN5CCC[C@@H](CN3C1=O)[C@@H]45)C2=O (some centres unmarked) [GJD 16]
14 | 50 to 100 | O=C(Nc1cccc2c1CN(C1CC[C@@H]3[C@H]4CCCN5CCC[C@@H](CN3C1=O)[C@@H]45)C2=O)c1ccccc1 (some centres unmarked) [GJD 34]
15 | > 100 | O=C1[C@@H](N2C(=O)c3ccccc3C2=O)CC[C@@H]2[C@H]3CCCN4CCC[C@@H](CN12)[C@@H]34 [GJD 25]

Test system: HpeG-2 cells
Experiment: MTT tumor cell growth inhibition, HpeG-2
Type: cell-based
Settings: 48 h, read-out: Tumors growth-inhibitory activity (IC50) HpeG-2
Method: as §1

Row | Compound | IC50 [µM]
16 | Nc1ccc(S(=O)(=O)NC2=CC[C@@H]3[C@H]4CCCN5CCC[C@@H](CN3C2=O)[C@@H]45)cc1 [GJD 47] | 50 to 100
17 | NC1CC[C@@H]2[C@H]3CCCN4CCC[C@@H](CN2C1=O)[C@@H]34 (some centres unmarked) [Compound M-3, 14-amino-matrine] | 50 to 100

More lines, now with the values ahead:

Row | IC50 [µM] | Compound
18 | < 50 | COc1ccc2c(c1)C(=O)N(C1CC[C@@H]3[C@H]4CCCN5CCC[C@@H](CN3C1=O)[C@@H]45)C2=O (some centres unmarked) [GJD 16]
19 | < 50 | O=C(Nc1cccc2c1CN(C1CC[C@@H]3[C@H]4CCCN5CCC[C@@H](CN3C1=O)[C@@H]45)C2=O)c1ccccc1 (some centres unmarked) [GJD 34]
20 | 50 to 100 | O=C1[C@@H](N2C(=O)c3ccccc3C2=O)CC[C@@H]2[C@H]3CCCN4CCC[C@@H](CN12)[C@@H]34 [GJD 25]

Test system: k562 cells
Experiment: MTT tumor cell growth inhibition, k562
Type: cell-based
Settings: Homo sapiens, 48 h, read-out: Tumors growth-inhibitory activity (IC50) k562
Method: as §1

Row | Compound | IC50 [µM]
21 | Nc1ccc(S(=O)(=O)NC2=CC[C@@H]3[C@H]4CCCN5CCC[C@@H](CN3C2=O)[C@@H]45)cc1 [GJD 47] | 50 to 100
22 | NC1CC[C@@H]2[C@H]3CCCN4CCC[C@@H](CN2C1=O)[C@@H]34 (some centres unmarked) [Compound M-3, 14-amino-matrine] | 50 to 100

Second part, the compound after the results:

Row | IC50 [µM] | Compound
23 | 50 to 100 | COc1ccc2c(c1)C(=O)N(C1CC[C@@H]3[C@H]4CCCN5CCC[C@@H](CN3C1=O)[C@@H]45)C2=O (some centres unmarked) [GJD 16]
24 | < 50 | O=C(Nc1cccc2c1CN(C1CC[C@@H]3[C@H]4CCCN5CCC[C@@H](CN3C1=O)[C@@H]45)C2=O)c1ccccc1 (some centres unmarked) [GJD 34]
25 | 50 to 100 | O=C1[C@@H](N2C(=O)c3ccccc3C2=O)CC[C@@H]2[C@H]3CCCN4CCC[C@@H](CN12)[C@@H]34 [GJD 25]

Test system: A549 cells
Experiment: MTT tumor cell growth inhibition, A549
Type: cell-based
Settings: Homo sapiens, 48 h, read-out: Tumors growth-inhibitory activity (IC50) A549
Method: as §1

Row | Compound | IC50 [µM]
26 | Nc1ccc(S(=O)(=O)NC2=CC[C@@H]3[C@H]4CCCN5CCC[C@@H](CN3C2=O)[C@@H]45)cc1 [GJD 47] | 50 to 100
27 | NC1CC[C@@H]2[C@H]3CCCN4CCC[C@@H](CN2C1=O)[C@@H]34 (some centres unmarked) [Compound M-3, 14-amino-matrine] | 50 to 100

The next lines start with the values.

Row | IC50 [µM] | Compound
28 | > 100 | COc1ccc2c(c1)C(=O)N(C1CC[C@@H]3[C@H]4CCCN5CCC[C@@H](CN3C1=O)[C@@H]45)C2=O (some centres unmarked) [GJD 16]
29 | 50 to 100 | O=C(Nc1cccc2c1CN(C1CC[C@@H]3[C@H]4CCCN5CCC[C@@H](CN3C1=O)[C@@H]45)C2=O)c1ccccc1 (some centres unmarked) [GJD 34]
30 | 50 to 100 | O=C1[C@@H](N2C(=O)c3ccccc3C2=O)CC[C@@H]2[C@H]3CCCN4CCC[C@@H](CN12)[C@@H]34 [GJD 25]

Test system: Panc-1 cells
Experiment: MTT tumor cell growth inhibition, Panc-1
Type: cell-based
Settings: Homo sapiens, 48 h, read-out: Tumors growth-inhibitory activity (IC50) Panc-1
Method: as §1

Row | Compound | IC50 [µM]
31 | Nc1ccc(S(=O)(=O)NC2=CC[C@@H]3[C@H]4CCCN5CCC[C@@H](CN3C2=O)[C@@H]45)cc1 [GJD 47] | > 100
32 | NC1CC[C@@H]2[C@H]3CCCN4CCC[C@@H](CN2C1=O)[C@@H]34 (some centres unmarked) [Compound M-3, 14-amino-matrine] | > 100

More lines, now with the values ahead:

Row | IC50 [µM] | Compound
33 | > 100 | COc1ccc2c(c1)C(=O)N(C1CC[C@@H]3[C@H]4CCCN5CCC[C@@H](CN3C1=O)[C@@H]45)C2=O (some centres unmarked) [GJD 16]
34 | 50 to 100 | O=C(Nc1cccc2c1CN(C1CC[C@@H]3[C@H]4CCCN5CCC[C@@H](CN3C1=O)[C@@H]45)C2=O)c1ccccc1 (some centres unmarked) [GJD 34]
35 | > 100 | O=C1[C@@H](N2C(=O)c3ccccc3C2=O)CC[C@@H]2[C@H]3CCCN4CCC[C@@H](CN12)[C@@H]34 [GJD 25]
